From patent US8372967B2, “Compounds and methods for modulating expression of GCCR” (Isis Pharmaceuticals, Inc., priority 2006, dated 2013)
Strand notation (5' to 3'): a small letter for the sugar, then the base; units joined by * are phosphorothioate-linked, units joined directly phosphodiester-linked; [ ] holds rarer units or linkages, { } end groups; capitals alone tell only the bases. e = 2'-O-(2-methoxyethyl) (MOE); [5mC] = 5-methylcytosine; d = 2'-deoxy (DNA)

Columns and labels:
[1] = system: rat DGAT2 mRNA; assay: Dose-dependent inhibition of DGAT2 in A10 cells (Tables 82, 83); format: cell-based
Method: Additional short antisense compounds targeted to DGAT2 mRNA were tested in vitro in a dose-response experiment. A10 cells were prepared as described above and treated with 6.25, 12.5, 25.0, 50.0, 100.0, and 200.0 nM short antisense compounds to determine if DGAT2 inhibition occurs in a dose-dependent manner. […] Results are presented as percent inhibition, relative to untreated control cells.
Additional short antisense compounds targeted to DGAT2 mRNA were tested in vitro. A10 cells were prepared as described above and treated with 0.62, 1.85, 5.56, 16.67, 50.0, and 150.0 nM short antisense compounds to determine if DGAT2 inhibition occurs in a dose-dependent manner. DGAT2 mRNA was measured using quantitative real-time PCR, as described herein. […] Results are presented as percent inhibition of rat DGAT2, relative to untreated control cells.

[2] = system: PCSK9 mRNA; format: cell-based, human; conditions: Hep3B cells, 100 nM, relative to untreated control cells; for % Inhib: 0 = no reduction observed
Method: When cells reached appropriate confluency, they were treated with oligonucleotide using LIPOFECTIN® as described. […] Cells were treated and data were obtained in duplicate or triplicate. […] Cells were harvested 16-24 hours after oligonucleotide treatment.
Prior to quantitative PCR analysis, primer-probe sets specific to the target gene being measured were evaluated for their ability to be “multiplexed” with a GAPDH amplification reaction. After isolation the RNA is subjected to sequential reverse transcriptase (RT) reaction and real-time PCR, both of which are performed in the same well. RT and PCR reagents were obtained from Invitrogen Life Technologies (Carlsbad, Calif.). […] The RT reaction was carried out by incubation for 30 minutes at 48° C. Following a 10 minute incubation at 95° C. to activate the PLATIN 9M® Taq, 40 cycles of a two-step PCR protocol were carried out: 95° C. for 15 seconds (denaturation) followed by 60° C. for 1.5 minutes (annealing/extension).
170 μL of RiboGreen® working reagent (RiboGreen® reagent diluted 1:350 in 10 mM Tris-HCl, 1 mM EDTA, pH 7.5) was pipetted into a 96-well plate containing 30 μL purified cellular RNA. The plate was read in a CytoFluor® 4000 (PE Applied Biosystems) with excitation at 485 nm and emission at 530 nm.
Short antisense compounds targeted to a PCSK9 nucleic acid were tested for their effects on PCSK9 mRNA in vitro. The Isis No, gapmer motif and SEQ ID NO of each short antisense compound are shown again in Table 75. Cultured Hep3B cells were treated with 100 nM of short antisense compound. 5-10-5 MOE gapmers targeted to a PCSK9 nucleic acid were used as positive controls. After the treatment period, RNA was isolated from the cells and PCSK9 mRNA levels were measured by quantitative real-time PCR, as described herein. PCSK9 mRNA levels were adjusted according to total RNA content as measured by RIBOGREEN®. Results are presented in Table 75 as percent inhibition of PCSK9 (% Inhib), relative to untreated control cells.

| Substance | % Inhib [2] [%] | other results |
| --- | --- | --- |
| 372562 (antisense eG*eT*d[5mC]*dT*dT*dG*dG*dA*dG*dG*dG*d[5mC]*e[5mC]*eG) [compound 372562] | – | percent inhibition of DGAT2 ([1]; 6.25 nM (Table 82)): 0%; percent inhibition of DGAT2 ([1]; 12.5 nM (Table 82)): 0%; percent inhibition of DGAT2 ([1]; 50.0 nM (Table 82)): 36%; percent inhibition of DGAT2 ([1]; 100.0 nM (Table 82)): 48%; percent inhibition of DGAT2 ([1]; 200.0 nM (Table 82)): 75% |
| 372568 (antisense eG*eA*d[5mC]*dA*d[5mC]*dT*dG*d[5mC]*dA*dG*dG*d[5mC]*e[5mC]*eA) [compound 372568] | – | percent inhibition of DGAT2 ([1]; 6.25 nM (Table 82)): 0%; percent inhibition of DGAT2 ([1]; 12.5 nM (Table 82)): 0%; percent inhibition of DGAT2 ([1]; 50.0 nM (Table 82)): 26%; percent inhibition of DGAT2 ([1]; 100.0 nM (Table 82)): 72%; percent inhibition of DGAT2 ([1]; 200.0 nM (Table 82)): 69% |
| 400297 (antisense eA*eT*dG*dG*dG*dG*d[5mC]*dA*dA*d[5mC]*dT*dT*e[5mC]*eA) [compound 400297] | 0 | – |
| 400298 (antisense e[5mC]*eA*dT*dG*dG*dG*dG*d[5mC]*dA*dA*d[5mC]*dT*eT*e[5mC]) [compound 400298] | 0 | – |
| 400299 (antisense eA*e[5mC]*dA*dT*dG*dG*dG*dG*d[5mC]*dA*dA*d[5mC]*eT*eT) [compound 400299] | 0 | – |
| 400300 (antisense eG*eG*dG*dA*dT*dG*d[5mC]*dT*d[5mC]*dT*dG*dG*eG*e[5mC]) [compound 400300] | 9 | – |
| 400301 (antisense e[5mC]*eG*d[5mC]*dT*d[5mC]*d[5mC]*dA*dG*dG*dT*dT*d[5mC]*e[5mC]*eA) [compound 400301] | 27 | % Inhibition Range [2]: 20-30% |
| 400302 (antisense eG*eA*dT*dA*d[5mC]*dA*d[5mC]*d[5mC]*dT*d[5mC]*d[5mC]*dA*e[5mC]*e[5mC]) [compound 400302] | 0 | – |
| 400303 (antisense eA*eG*dA*dT*dA*d[5mC]*dA*d[5mC]*d[5mC]*dT*d[5mC]*d[5mC]*eA*e[5mC]) [compound 400303] | 0 | – |
| 400304 (antisense eG*eA*dG*dA*dT*dA*d[5mC]*dA*d[5mC]*d[5mC]*dT*d[5mC]*e[5mC]*eA) [compound 400304] | 11 | % Inhibition Range [2]: 10-20% |
| 400305 (antisense eG*e[5mC]*d[5mC]*dT*dG*dT*d[5mC]*dT*dG*dT*dG*dG*eA*eA) [compound 400305] | 38 | % Inhibition Range [2]: 30-40% |
| 400306 (antisense e[5mC]*eT*dG*dT*d[5mC]*dA*d[5mC]*dA*d[5mC]*dT*dT*dG*e[5mC]*eT) [compound 400306] | 40 | % Inhibition Range [2]: 40-50% |
| 400310 (antisense eT*e[5mC]*d[5mC]*d[5mC]*dG*dG*d[5mC]*d[5mC]*dG*d[5mC]*dT*dG*eA*e[5mC]) [compound 400310] | 8 | – |
| 400311 (antisense eA*eT*d[5mC]*d[5mC]*d[5mC]*dG*dG*d[5mC]*d[5mC]*dG*d[5mC]*dT*eG*eA) [compound 400311] | 18 | % Inhibition Range [2]: 10-20% |
| 400312 (antisense e[5mC]*eA*dT*d[5mC]*d[5mC]*d[5mC]*dG*dG*d[5mC]*d[5mC]*dG*d[5mC]*eT*eG) [compound 400312] | 28 | % Inhibition Range [2]: 20-30% |
| 400313 (antisense eG*e[5mC]*dA*dT*d[5mC]*d[5mC]*d[5mC]*dG*dG*d[5mC]*d[5mC]*dG*e[5mC]*eT) [compound 400313] | 10 | % Inhibition Range [2]: 10-20% |
| 400314 (antisense eG*eT*dG*d[5mC]*d[5mC]*d[5mC]*dT*dT*d[5mC]*d[5mC]*d[5mC]*dT*eT*eG) [compound 400314] | 26 | % Inhibition Range [2]: 20-30% |
| 400315 (antisense eA*eT*dG*dA*dG*dG*dG*dT*dG*d[5mC]*d[5mC]*dG*e[5mC]*eT) [compound 400315] | 0 | – |
| 400316 (antisense eT*eA*dT*dG*dA*dG*dG*dG*dT*dG*d[5mC]*d[5mC]*eG*e[5mC]) [compound 400316] | 8 | – |
| 400317 (antisense e[5mC]*eT*dA*dT*dG*dA*dG*dG*dG*dT*dG*d[5mC]*e[5mC]*eG) [compound 400317] | 7 | – |
| 400318 (antisense e[5mC]*e[5mC]*dT*dA*dT*dG*dA*dG*dG*dG*dT*dG*e[5mC]*e[5mC]) [compound 400318] | 26 | % Inhibition Range [2]: 20-30% |
| 400319 (antisense e[5mC]*eG*dA*dA*dT*dA*dA*dA*d[5mC]*dT*d[5mC]*d[5mC]*eA*eG) [compound 400319] | 0 | – |

| Substance | % Inhib [2] [%] | other results |
| --- | --- | --- |
| 400320 (antisense e[5mC]*e[5mC]*dG*dA*dA*dT*dA*dA*dA*d[5mC]*dT*d[5mC]*e[5mC]*eA) [compound 400320] | 0 | – |
| 400321 (antisense eT*e[5mC]*d[5mC]*dG*dA*dA*dT*dA*dA*dA*d[5mC]*dT*e[5mC]*e[5mC]) [compound 400321] | 0 | – |
| 400322 (antisense eT*eT*d[5mC]*d[5mC]*dG*dA*dA*dT*dA*dA*dA*d[5mC]*eT*e[5mC]) [compound 400322] | 0 | – |
| 400323 (antisense eG*e[5mC]*d[5mC]*dA*dG*dG*dG*dG*d[5mC]*dA*dG*d[5mC]*eA*eG) [compound 400323] | 0 | – |
| 400324 (antisense eG*eA*dG*dT*dA*dG*dA*dG*dG*d[5mC]*dA*dG*eG*e[5mC]) [compound 400324] | 7 | – |
| 400325 (antisense e[5mC]*e[5mC]*d[5mC]*d[5mC]*dA*dA*dA*dG*dT*d[5mC]*d[5mC]*d[5mC]*e[5mC]*eA) [compound 400325] | 4 | – |
| 400326 (antisense eT*e[5mC]*d[5mC]*d[5mC]*d[5mC]*dA*dA*dA*dG*dT*d[5mC]*d[5mC]*e[5mC]*e[5mC]) [compound 400326] | 0 | – |
| 400328 (antisense eA*e[5mC]*dG*dT*dG*dG*dG*d[5mC]*dA*dG*d[5mC]*dA*eG*e[5mC]) [compound 400328] | 13 | % Inhibition Range [2]: 10-20% |
| 400329 (antisense e[5mC]*eA*d[5mC]*dG*dT*dG*dG*dG*d[5mC]*dA*dG*d[5mC]*eA*eG) [compound 400329] | 14 | % Inhibition Range [2]: 10-20% |
| 400332 (antisense e[5mC]*eA*dG*dG*dG*dA*dA*d[5mC]*d[5mC]*dA*dG*dG*e[5mC]*e[5mC]) [compound 400332] | 0 | – |
| 400333 (antisense eT*e[5mC]*dA*dG*dG*dG*dA*dA*d[5mC]*d[5mC]*dA*dG*eG*e[5mC]) [compound 400333] | 0 | – |
| 400334 (antisense e[5mC]*eT*d[5mC]*dA*dG*dG*dG*dA*dA*d[5mC]*d[5mC]*dA*eG*eG) [compound 400334] | 0 | – |
| 400335 (antisense e[5mC]*e[5mC]*dT*d[5mC]*dA*dG*dG*dG*dA*dA*d[5mC]*d[5mC]*eA*eG) [compound 400335] | 0 | – |
| 400336 (antisense eT*e[5mC]*d[5mC]*dT*d[5mC]*dA*dG*dG*dG*dA*dA*d[5mC]*e[5mC]*eA) [compound 400336] | 4 | – |
| 400337 (antisense eG*eT*d[5mC]*d[5mC]*dT*d[5mC]*dA*dG*dG*dG*dA*dA*e[5mC]*e[5mC]) [compound 400337] | 0 | – |
| 400338 (antisense eG*eG*dT*d[5mC]*d[5mC]*dT*d[5mC]*dA*dG*dG*dG*dA*eA*e[5mC]) [compound 400338] | 9 | – |
| 400339 (antisense eT*eG*dG*dT*d[5mC]*d[5mC]*dT*d[5mC]*dA*dG*dG*dG*eA*eA) [compound 400339] | 0 | – |
| 400340 (antisense e[5mC]*eT*dG*dG*dT*d[5mC]*d[5mC]*dT*d[5mC]*dA*dG*dG*eG*eA) [compound 400340] | 0 | – |
| 400341 (antisense eG*e[5mC]*dT*dG*dG*dT*d[5mC]*d[5mC]*dT*d[5mC]*dA*dG*eG*eG) [compound 400341] | 0 | – |
| 400342 (antisense eG*eT*dG*d[5mC]*dT*dG*dG*dG*dG*dG*dG*d[5mC]*eA*eG) [compound 400342] | 0 | – |
| 400343 (antisense eG*eG*dT*dG*d[5mC]*dT*dG*dG*dG*dG*dG*dG*e[5mC]*eA) [compound 400343] | 0 | – |
